Experimental data taken from patent US8809331B2 (Genentech, Inc., priority 2011, dated 2014).

Target: T1, LRRK2 (Homo sapiens, UniProt Q5S007, G2019S)
T1 construct: purchased Invitrogen PV4882
Assay: In Vitro LRRK2 LabChip Assay (LRRK2 Ki)
Assay type: biochemical
Conditions: Table 5 compounds (formula I)

T1 sequence (Q5S007 whole entry G2019S): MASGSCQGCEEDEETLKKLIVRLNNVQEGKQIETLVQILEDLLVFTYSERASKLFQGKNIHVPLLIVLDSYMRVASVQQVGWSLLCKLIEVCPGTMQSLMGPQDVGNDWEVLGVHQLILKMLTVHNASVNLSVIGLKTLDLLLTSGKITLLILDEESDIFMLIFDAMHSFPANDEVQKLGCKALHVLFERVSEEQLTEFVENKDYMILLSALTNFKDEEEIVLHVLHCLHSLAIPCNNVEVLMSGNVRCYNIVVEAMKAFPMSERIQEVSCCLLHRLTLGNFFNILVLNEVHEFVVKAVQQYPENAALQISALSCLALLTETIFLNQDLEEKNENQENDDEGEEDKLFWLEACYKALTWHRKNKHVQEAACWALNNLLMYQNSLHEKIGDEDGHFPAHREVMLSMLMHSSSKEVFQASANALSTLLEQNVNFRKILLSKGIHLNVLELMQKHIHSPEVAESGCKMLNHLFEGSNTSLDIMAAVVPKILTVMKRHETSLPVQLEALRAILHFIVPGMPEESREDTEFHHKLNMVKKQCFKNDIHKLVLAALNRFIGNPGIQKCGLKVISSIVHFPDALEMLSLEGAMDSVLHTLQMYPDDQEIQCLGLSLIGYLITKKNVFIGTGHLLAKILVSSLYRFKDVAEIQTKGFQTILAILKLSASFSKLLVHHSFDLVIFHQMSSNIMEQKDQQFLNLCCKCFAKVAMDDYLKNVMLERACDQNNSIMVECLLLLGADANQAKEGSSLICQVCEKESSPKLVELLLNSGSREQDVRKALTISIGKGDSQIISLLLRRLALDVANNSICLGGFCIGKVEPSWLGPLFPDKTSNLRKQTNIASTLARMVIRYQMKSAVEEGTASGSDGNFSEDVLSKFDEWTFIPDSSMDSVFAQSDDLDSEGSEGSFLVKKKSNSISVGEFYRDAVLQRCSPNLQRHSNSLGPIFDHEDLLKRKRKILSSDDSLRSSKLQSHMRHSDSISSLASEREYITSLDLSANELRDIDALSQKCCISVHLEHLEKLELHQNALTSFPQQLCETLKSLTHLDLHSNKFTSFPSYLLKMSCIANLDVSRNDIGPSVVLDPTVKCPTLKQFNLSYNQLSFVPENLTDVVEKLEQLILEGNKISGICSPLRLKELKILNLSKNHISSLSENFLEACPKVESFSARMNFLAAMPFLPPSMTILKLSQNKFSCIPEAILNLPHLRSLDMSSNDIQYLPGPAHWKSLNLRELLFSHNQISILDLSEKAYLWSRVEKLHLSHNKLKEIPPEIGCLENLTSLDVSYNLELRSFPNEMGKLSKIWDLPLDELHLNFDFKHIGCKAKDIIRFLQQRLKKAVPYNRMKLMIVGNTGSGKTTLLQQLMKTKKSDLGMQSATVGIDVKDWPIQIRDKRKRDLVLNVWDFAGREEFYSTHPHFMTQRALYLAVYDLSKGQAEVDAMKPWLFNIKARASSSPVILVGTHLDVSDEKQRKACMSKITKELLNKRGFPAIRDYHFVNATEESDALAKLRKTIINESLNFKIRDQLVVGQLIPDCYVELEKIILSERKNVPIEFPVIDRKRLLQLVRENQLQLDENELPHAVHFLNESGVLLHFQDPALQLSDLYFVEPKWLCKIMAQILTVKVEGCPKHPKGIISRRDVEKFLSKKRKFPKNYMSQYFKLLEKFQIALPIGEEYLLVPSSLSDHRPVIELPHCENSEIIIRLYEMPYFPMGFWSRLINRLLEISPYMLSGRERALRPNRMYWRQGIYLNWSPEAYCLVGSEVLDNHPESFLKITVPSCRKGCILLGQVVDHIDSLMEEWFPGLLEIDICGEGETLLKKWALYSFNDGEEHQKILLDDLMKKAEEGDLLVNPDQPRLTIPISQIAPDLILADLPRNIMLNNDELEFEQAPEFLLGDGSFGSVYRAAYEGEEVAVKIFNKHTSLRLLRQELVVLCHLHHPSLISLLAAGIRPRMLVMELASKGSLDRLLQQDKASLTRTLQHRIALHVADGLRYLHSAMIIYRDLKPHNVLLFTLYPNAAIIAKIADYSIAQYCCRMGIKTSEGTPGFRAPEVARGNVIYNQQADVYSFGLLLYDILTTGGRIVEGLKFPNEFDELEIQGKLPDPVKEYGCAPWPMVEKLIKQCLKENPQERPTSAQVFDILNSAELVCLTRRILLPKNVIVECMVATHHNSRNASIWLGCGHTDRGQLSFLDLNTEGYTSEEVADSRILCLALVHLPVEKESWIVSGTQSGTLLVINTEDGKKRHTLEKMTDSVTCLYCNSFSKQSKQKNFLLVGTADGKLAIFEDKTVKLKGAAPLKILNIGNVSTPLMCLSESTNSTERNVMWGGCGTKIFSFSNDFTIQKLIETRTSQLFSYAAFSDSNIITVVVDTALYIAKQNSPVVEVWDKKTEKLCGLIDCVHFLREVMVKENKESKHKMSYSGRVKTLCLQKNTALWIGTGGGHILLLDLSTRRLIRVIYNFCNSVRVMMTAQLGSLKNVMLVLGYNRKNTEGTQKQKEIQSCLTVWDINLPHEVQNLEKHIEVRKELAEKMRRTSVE

| SMILES | Ki [nM] |
| --- | --- |
| COc1cc(C(=O)N2CCOCC2)c(F)cc1Nc1ncc(C(F)(F)F)c(N[C@@H]2C[C@@H]2F)n1 [Compound 75, {2-Fluoro-4-[4-((1R,2S)-2-fluoro-cyclopropylamino)-5-trifluoromethyl-pyrimidin-2-ylamino]-5-methoxy-phenyl}-morpholin-4-yl-methanone] | 2.19 |
| CNc1nc(Nc2cc(F)c(C(=O)N3CCOC(C)(C)C3)cc2OC)ncc1C(F)(F)F [Compound 76, (2,2-Dimethyl-morpholin-4-yl)-[2-fluoro-5-methoxy-4-(4-methylamino-5-trifluoromethyl-pyrimidin-2-ylamino)-phenyl]-methanone] | 6.86 |
| CNc1nc(Nc2ccc(C(=O)N3CCOCC3)cc2OC2CC2)ncc1C(F)(F)F [Compound 77, [3-Cyclopropoxy-4-(4-methylamino-5-trifluoromethyl-pyrimidin-2-ylamino)-phenyl]-morpholin-4-yl-methanone] | 1.62 |
| CCNc1nc(Nc2cc(OC(F)F)c(C(=O)N3CCOCC3)cc2Cl)ncc1C(F)(F)F [Compound 78, [5-Chloro-2-difluoromethoxy-4-(4-ethylamino-5-trifluoromethyl-pyrimidin-2-ylamino)-phenyl]-morpholin-4-yl-methanone] | 6.87 |
| CNc1nc(Nc2cc(OC(F)F)c(C(=O)N3CCOCC3)cc2Cl)ncc1C(F)(F)F [Compound 79, [5-Chloro-2-difluoromethoxy-4-(4-methylamino-5-trifluoromethyl-pyrimidin-2-ylamino)-phenyl]-morpholin-4-yl-methanone] | 27.1 |
| CCNc1nc(Nc2cc(F)c(C(=O)N3CC[C@H](F)C3)cc2OC)ncc1C#N [Compound 80, 4-Ethylamino-2-[5-fluoro-4-((S)-3-fluoro-pyrrolidine-1-carbonyl)-2-methoxy-phenylamino]-pyrimidine-5-carbonitrile] | 10.4 |
| CCNc1nc(Nc2cc(OC)c(C(=O)N3CC[C@H](F)C3)cc2F)ncc1C#N [Compound 81, 4-Ethylamino-2-[2-fluoro-4-((S)-3-fluoro-pyrrolidine-1-carbonyl)-5-methoxy-phenylamino]-pyrimidine-5-carbonitrile] | 51.6 |
| CNc1nc(Nc2cc(OC)c(C(=O)N3CCOCC3)c(OC)c2Cl)ncc1C(F)(F)F [Compound 82, [3-Chloro-2,6-dimethoxy-4-(4-methylamino-5-trifluoromethyl-pyrimidin-2-ylamino)-phenyl]-morpholin-4-yl-methanone] | 2.82 |
| CNc1nc(Nc2ccc(C(=O)N3CCOC(C)(C)C3)cc2OC)ncc1C(F)(F)F [Compound 83, (2,2-Dimethyl-morpholin-4-yl)-[3-methoxy-4-(4-methylamino-5-trifluoromethyl-pyrimidin-2-ylamino)-phenyl]-methanone] | 1.74 |
| CNc1nc(Nc2cc(C)c(C(=O)N3CCOCC3)cc2OCCF)ncc1C(F)(F)F [Compound 84, [5-(2-Fluoro-ethoxy)-2-methyl-4-(4-methylamino-5-trifluoromethyl-pyrimidin-2-ylamino)-phenyl]-morpholin-4-yl-methanone] | 2.34 |
| CNc1nc(Nc2cc(OC)c(C(=O)N3CCCC3)cc2OCCF)ncc1C(F)(F)F [Compound 85, [5-(2-Fluoro-ethoxy)-2-methoxy-4-(4-methylamino-5-trifluoromethyl-pyrimidin-2-ylamino)-phenyl]-pyrrolidin-1-yl-methanone] | 4.72 |
| [2H]C1([2H])OC([2H])([2H])C([2H])([2H])N(C(=O)c2cc(Cl)c(Nc3ncc(C(F)(F)F)c(NCC)n3)cc2OC)C1([2H])[2H] [Compound 86, (5-chloro-4-(4-(ethylamino)-5-(trifluoromethyl)pyrimidin-2-ylamino)-2-methoxyphenyl)(perdeuteromorpholino)methanone] | 4.09 |
| COc1cc(C(=O)N2CCOCC2)c(OC)cc1Nc1ncc(Cl)c(OC)n1 [Compound 87, [4-(5-Chloro-4-methoxy-pyrimidin-2-ylamino)-2,5-dimethoxy-phenyl]-morpholin-4-yl-methanone] | 5.5 |
| CNc1nc(Nc2cc(C)c(C(=O)N3CCOCC3)cc2OCF)ncc1C(F)(F)F [Compound 88, [5-Fluoromethoxy-2-methyl-4-(4-methylamino-5-trifluoromethyl-pyrimidin-2-ylamino)-phenyl]-morpholin-4-yl-methanone] | 1.01 |
| CCN(c1ncc(C(F)(F)F)c(NC)n1)c1cc(C)c(C(=O)N2CCOCC2)cc1OCF [Compound 89, {4-[Ethyl-(4-methylamino-5-trifluoromethyl-pyrimidin-2-yl)-amino]-5-fluoromethoxy-2-methyl-phenyl}-morpholin-4-yl-methanone] | 2600 |
| CNc1nc(Nc2cc(OC)c(C(=O)N3CCCC3)cc2OCF)ncc1C(F)(F)F [Compound 90, [5-Fluoromethoxy-2-methoxy-4-(4-methylamino-5-trifluoromethyl-pyrimidin-2-ylamino)-phenyl]-pyrrolidin-1-yl-methanone] | 3.2 |
| COc1cc(C(=O)N2CCOCC2)c(F)cc1Nc1ncc(C(F)(F)F)c(NC2CCC2)n1 [Compound 91, [4-(4-Cyclobutylamino-5-trifluoromethyl-pyrimidin-2-ylamino)-2-fluoro-5-methoxy-phenyl]-morpholin-4-yl-methanone] | 0.31 |
| CNc1nc(Nc2cc(F)c(C(=O)N3CCOCC3)cc2C)ncc1C(F)(F)F [Compound 92, [2-Fluoro-5-methyl-4-(4-methylamino-5-trifluoromethyl-pyrimidin-2-ylamino)-phenyl]-morpholin-4-yl-methanone] | 3.64 |
| COc1cc(C(=O)N2CCOCC2)c(C)cc1Nc1ncc(Cl)c(OC)n1 [Compound 93, [4-(5-Chloro-4-methoxy-pyrimidin-2-ylamino)-5-methoxy-2-methyl-phenyl]-morpholin-4-yl-methanone] | 5.55 |
| CCOc1nc(Nc2cc(C)c(C(=O)N3CCOCC3)cc2OC)ncc1Cl [Compound 94, [4-(5-Chloro-4-ethoxy-pyrimidin-2-ylamino)-5-methoxy-2-methyl-phenyl]-morpholin-4-yl-methanone] | 2.97 |
| CNc1nc(Nc2cc(F)c(C(=O)N3CCCC3)cc2OCF)ncc1C(F)(F)F [Compound 95, [2-Fluoro-5-fluoromethoxy-4-(4-methylamino-5-trifluoromethyl-pyrimidin-2-ylamino)-phenyl]-pyrrolidin-1-yl-methanone] | 6.93 |
| COc1cc(C(=O)N2CC[C@H](F)C2)ccc1Nc1ncc(C#N)c(NC2CC2)n1 [Compound 96, 4-Cyclopropylamino-2-[4-((S)-3-fluoro-pyrrolidine-1-carbonyl)-2-methoxy-phenylamino]-pyrimidine-5-carbonitrile] | 3.13 |
| CCNc1nc(Nc2cc(C)c(C(=O)N3CC[C@H](F)C3)cc2OC)ncc1C#N [Compound 97, 4-Ethylamino-2-[4-((S)-3-fluoro-pyrrolidine-1-carbonyl)-2-methoxy-5-methyl-phenylamino]-pyrimidine-5-carbonitrile] | 1.21 |
| CCNc1nc(Nc2ccc(C(=O)N3CC[C@H](F)C3)cc2F)ncc1C#N [Compound 98, 4-Ethylamino-2-[2-fluoro-4-((S)-3-fluoro-pyrrolidine-1-carbonyl)-phenylamino]-pyrimidine-5-carbonitrile] | 17.5 |
| CNc1nc(Nc2cc(C)c(C(=O)N3CCOCC3)cc2OC(C)C)ncc1C(F)(F)F [Compound 99, [5-Isopropoxy-2-methyl-4-(4-methylamino-5-trifluoromethyl-pyrimidin-2-ylamino)-phenyl]-morpholin-4-yl-methanone] | 3.66 |
